Measurements: patent publication US8507214B2, “Elisa kit for detecting lincomycin” (Beijing Kwinbon Biotechnology Co., Ltd., priority 2008, dated 2013)

Assays:
[1] = test system: monoclonal antibody prepared from hapten LIN-S2; test: Cross reaction (specificity) of the monoclonal antibody prepared from hapten LIN-S2; format: binding, mouse; conditions: antibody from hapten scheme LIN-S2; lincomycin = 100%
Method: (§1) When the mouse serum titer is determined as high, the spleen cells are collected and fused with SP2/0 myeloma cells at an amount ratio of 7:1. The cell supernatant is detected by indirect competitive ELISA for screening the positive wells. The cells in the positive wells are cloned via limiting dilution method until a hybridoma cell secreting monoclonal antibody is obtained. The 50% inhibitory concentration and specificity of the monoclonal antibodies prepared from the two hapten schemes above are detected.

[2] = test system: lincomycin monoclonal antibody prepared from hapten LIN-S1; test: Cross reaction (specificity) of the monoclonal antibody prepared from hapten LIN-S1; format: binding, mouse; conditions: antibody from hapten scheme LIN-S1; lincomycin = 100%
Method: as §1

Row | SMILES | Cross reaction [1] [%] | Cross reaction [2] [%]
1 | CC[C@H]1OC(=O)[C@H](C)[C@@H](O[C@H]2C[C@@](C)(OC)[C@@H](O)[C@H](C)O2)[C@H](C)[C@@H](O[C@@H]2O[C@H](C)C[C@H](N(C)C)[C@H]2O)[C@](C)(O)C[C@@H](C)C(=O)[C@H](C)[C@@H](O)[C@]1(C)O [Erythromycin] | <1 | <1
2 | CCC[C@@H]1C[C@@H](C(=O)N[C@@H]([C@H]2O[C@H](SC)[C@H](O)[C@@H](O)[C@H]2O)[C@@H](C)O)N(C)C1 [Lincomycin] | 100 | 100
3 | [H]/N=C(/N)N[C@H]1[C@H](O)[C@@H](O)[C@H](O[C@@H]2O[C@@H](C)[C@](O)(C=O)[C@H]2O[C@@H]2O[C@@H](CO)[C@H](O)[C@@H](O)[C@@H]2NC)[C@@H](N/C(N)=N\[H])[C@@H]1O [Streptomycin] | 9.2 | <1
4 | CC[C@H]1OC(=O)C[C@@H](O)[C@H](C)[C@@H](O[C@@H]2O[C@H](C)[C@@H](O[C@H]3C[C@@](C)(O)[C@@H](O)[C@H](C)O3)[C@H](N(C)C)[C@H]2O)[C@@H](CC=O)C[C@@H](C)C(=O)/C=C/C(C)=C/[C@@H]1CO[C@@H]1O[C@H](C)[C@@H](O)[C@@H](OC)[C@H]1OC [Tylosin] | <1 | <1
